The record followed here is patent US20180094248A1, “Necroptosis Signaling as a Therapeutic Target for Alzheimer's Disease” (Arizona Board of Regents on behalf of Arizona State …, priority 2016, published 2018).

The test concerns phosphorylated MLKL. The test can be described thus: Western blot of total and phosphorylated MLKL in primary neurons (AAV-GFP experiment). It counts as cell-based, mouse. On the procedure:
At DIV 1, we infected primary cortical neurons isolated from APP/PS1 and wild type mice with an adeno-associated virus (AAV) expressing the green fluorescent protein (GFP) under the neuronal promotor CamKII. At DIV 7 and 11, neurons from the two genotypes were treated with 10 μM Nec1S or vehicle. We then measured GFP fluorescence in live cells as an indication of live neurons.
Western blot and ELISA: The proteins were run using reducing conditions in precast gels (Thermo Fisher Scientific) and transferred to nitrocellulose membranes (iBlot, Thermo Fisher Scientific). […] The blots were then washed with TBS-T, and imaged/quantified using a LICOR Odyssey CLx (LI-COR Biosciences) attached to a Dell computer (OptiPlex 7010) running Windows 7 and Image Studio (version 1.0.11, LI-COR Biosciences). […]
Primary neuronal cultures—For the GFP experiments: Primary neurons were isolated from APP/PS1 and NonTg Po pups. […] Neurons were treated for a total of 15 days and the GFP fluorescence was measured every 4 days. […] All fluorescent measurements (excitation 488 nm, emission 509 nm) were performed using the Synergy HT multi-mode microplate reader with the Gen5 software (BioTek, Winooski, Vt.). The reader was pre-heated to 37° C. to maintain optimal conditions for the neurons during the measurements. […]

Each structure is given as a SMILES string.

Regarding `CN1C(=O)NC(Cc2c[nH]c3c(Cl)cccc23)C1=O` (centres unmarked) [Nec1S, 5-((7-chloro-1 H-indol-3-yl)methyl)-3-methylimidazolidine-2,4-dione], the pMLKL level result (DIV 11, all four groups, AAV-GFP experiment) is “not detectable”. Also, the “ratio pMLKL/MLKL” value (DIV 15, 10 μM, APP/PS1-veh group vs the other three groups incl. APP/PS1-Nec1S) is given as “statistically different compared to the other three groups”.
